Source: article PMC10238281 (International Journal of Biological Macromolecules, 2023)

Legend:
spike RBD protein = spike RBD protein (Severe acute respiratory syndrome coronavirus 2, UniProt P0DTC2); assay type: binding, SARS-CoV-2
SARS2-S pseudovirus = assay: microbe, parasite or virus in culture; assay type: cell-based, SARS-CoV-2; conditions: for activity at 2 µM: A549-ACE2, 72 h, read-out: Luciferase ratio (%), 2 μM
[1] = Tissue distribution / pharmacokinetics in female ICR mice; assay type: in vivo

## O=C(CCCCC1SCC2NC(=O)NC21)NCCCCCC(=O)N1CCN(c2ccc(-c3cnc4[nH]cc(C(=O)c5ccc(F)cc5)c4c3)cn2)CC1 (centres unmarked) [Biotin-ASM-7, N-(6-(4-(5-(3-(4-Fluorobenzoyl)-1H-pyrrolo[2,3-b]pyridin-5-yl)pyridin-2-yl)piperazin-1-yl)-6-oxohexyl)-5-(2-oxohexahydro-1H-thieno[3,4-d]imidazol-4-yl)pentanamide]
Spike RBD protein
  Binding / pull-down of spike RBD protein by streptavidin IP: could pull down the spike RBD protein

## COc1ccc(C(=O)c2c[nH]c3ncc(-c4ccc(N5CCNCC5)nc4)cc23)cc1 [ASM-4, (4-Methoxyphenyl)(5-(6-(piperazin-1-yl)pyridin-3-yl)-1H-pyrrolo[2,3-b]pyridin-3-yl)methanone]
SARS2-S pseudovirus; Pseudovirus
  activity at 2 µM: < 25%

## O=C(c1cccc(F)c1)c1c[nH]c2ncc(-c3ccc(N4CCNCC4)nc3)cc12 [ASM-9, (3-Fluorophenyl)(5-(6-(piperazin-1-yl)pyridin-3-yl)-1H-pyrrolo[2,3-b]pyridin-3-yl)methanone]
SARS2-S pseudovirus; Pseudovirus
  activity at 2 µM: < 25%

## O=C(c1ccc(F)cc1)c1c[nH]c2ncc(-c3ccc(N4CCNCC4)nc3)cc12 [ASM-7, (4-Fluorophenyl)(5-(6-(piperazin-1-yl)pyridin-3-yl)-1H-pyrrolo[2,3-b]pyridin-3-yl)methanone]
[1]; female ICR mice, 1 h after oral administration (30 mg/kg)
  Organ distribution (heart, liver, spleen, lung, kidney, brain): favorable targetability towards the lung
[1]; female ICR mice, intravenous administration, 5 min
  Blood versus lung concentration: concentration of ASM-7 in the lung was substantially higher
[1]; female ICR mice, oral, 4 h
  Detection in the lung after oral administration: could still be detected in the lung
[1]; female, ICR, mouse, lung, iv, 3 mg/kg
  concentration at 5 min: 30000 ng/g
SARS2-S pseudovirus
  Fold advantage of EC50 over G7a: 20 fold
SARS2-S pseudovirus; Pseudovirus, A549-ACE2, read-out: EC50, inhibition of SARS2-S pseudovirus entry
  EC50: 450 nM

## CN1CCN(c2ccc(-c3cnc4[nH]cc(C(=O)c5ccc(F)cc5)c4c3)cc2)CC1 [ASM-2, (4-Fluorophenyl)(5-(4-(4-methylpiperazin-1-yl)phenyl)-1H-pyrrolo[2,3-b]pyridin-3-yl)methanone]
SARS2-S pseudovirus; Pseudovirus
  activity at 2 µM: < 25%

## O=C(CCCCC1SCC2NC(=O)NC21)NCCCCCC(=O)N1CCN(c2ccc(-c3cnc4[nH]c(/C=C/c5ccccc5O)nc4c3)cn2)CC1 (centres unmarked) [Biotin-G7a, (E)-N-(6-(4-(5-(2-(2-Hydroxystyryl)-3H-imidazo[4,5-b]pyridin-6-yl)pyridin-2-yl)piperazin-1-yl)-6-oxohexyl)-5-(2-oxohexahydro-1H-thieno[3,4-d]imidazol-4-yl)pentanamide]
Spike RBD protein
  Binding / pull-down of spike RBD protein by streptavidin IP: retained the ability to bind spike RBD protein
